Assay results: patent publication US20170051149A1, “AZOARYLS AS REVERSIBLY MODULATABLE TUBULIN INHIBITORS” (ECOLE NORMALE SUPERIEURE DE LYON, priority 2014, published 2017)

How the values were obtained:
Format in all cases: cell-based
HeLa cells [1] = experiment: MTT assay; settings: 48 h
Excerpt: The cytotoxic properties of I.1 were subsequently confirmed with another method, using the quantification of mitochondrial dehydrogenase activity of cells as determined by the level of 3-(4.5-dimethylthiazol-2-yl)-2.5-diphenyl tetrazolium bromide (MTT) reduction to its purple formazan, according to standard protocol^[30]. […] Cells were kept in the dark, or exposed to a pulsed toxic regime of 390 nm only, or exposed to a strong rescue protocol with pulses of 390 nm then 505 nm light. Pulses of light were applied every 30 s; 390 nm light pulses lasted 150 ms every 30 s, while the 505 nm light pulses were applied for 500 ms; in the strong rescue regime, the 505 nm pulse was synchronised so that it began immediately after the 390 nm pulse ended.
Cellular viability was measured 48 h later, namely, cells were incubated with MTT for three hours and after dissolution of the formazan crystals with DMSO, absorbance at 550 nm was measured using a FLUOstar Omega microplate reader. Results are shown in Table 5 below and are expressed as a fold growth relative to the control growth of the cells treated only with a co-solvent (0.5% MeCN) and represent mean and standard deviation of quadruplicates of the optical density values, which are proportional to the cell number.

HeLa cells [2] = experiment: cytotoxicity by crystal violet staining; settings: 40 h
Experimental: Seven of the compounds according to the invention were selected for biological tests. Their cytotoxicity was assessed using crystal violet staining as adapted from standard procedure^[31]. Briefly, HeLa cells were seeded on 96-well plates, treated with the given concentrations of the selected compound, and exposed or not to the pulse protocol of illumination with light at 390 nm (pulses of 75 ms every 15 s). After 40 h cells were stained with crystal violet solution (0.5% crystal violet in 20% methanol) for 10 min. Unbound crystal violet was removed by rinsing with distilled water and cells were air-dried. Crystal violet was subsequently eluted from cells with 0.1 M sodium citrate in 50% ethanol. The absorbance of crystal violet is proportional to the cell number and was determined at 590 nm with a FLUOstar Omega microplate reader (BMG Labtech).
Each compound was tested at 6 doses: 100 nM, 500 nM, 1 μM, 2 μM, 5 μM and 10 μM. In order to ensure their solubility in the cell culture media, DMSO was used as a co-solvent, and to provide comparability between all samples the volume of DMSO was adjusted to obtain its final concentration as 1% in the cell culture media for all the compounds at all concentrations tested.
Results presented in Table 4 below are expressed as a fold growth relative to the control growth of the cells treated only with a co-solvent (1% DMSO), and are represented as a mean value from triplicates coming from a representative experiment.

HEK-293 = experiment: cell cycle analysis by PI flow cytometry; settings: 30 h
Experimental: (§1) The effect of compound I.1 on cell cycle progression was assessed by flow cytometry. Briefly, following the application of compound I.1 and exposure to the indicated light regime, cells were harvested on ice and incubated in a hypotonic buffer [0.1% sodium citrate, 0.1% Triton X-100 and 50 μg/mL propidium iodide (PI)] for 30 min at 4° C. Following the PI staining cells were analysed by flow cytometry using FACSCalibur flow cytometer (Becton Dickinson, Heidelberg, Germany) and Cell Quest Pro Software (Becton Dickinson). Subsequently the cell cycle analysis was performed using the FlowJo software (Tree Star Inc., Ashland, Oreg., USA).

HepG2 cells = experiment: cell cycle analysis by PI flow cytometry; settings: 48 h
Experimental: as §1

HeLa = experiment: cell cycle analysis by PI flow cytometry; settings: 30 h
Experimental: as §1

[3] = 200 nM, 390 nm (1 s every 15 min)
[4] = 600 nM, 390 nm (1 s every 15 min)
[5] = 1.5 μM, 390 nm (1 s every 15 min)
[6] = 5 μM, 390 nm (1 s every 15 min)

COc1ccc(N=Nc2cc(OC)c(OC)c(OC)c2)cc1O [I.1, 2-methoxy-5-((3,4,5-trimethoxyphenyl)diazenyl)phenol]
mean fold growth (HeLa cells [1]; 10 nM, 390 nm (150 ms every 30 s)): 0.95 fold
mean fold growth (HeLa cells [1]; 10 nM, Dark): 0.93 fold
mean fold growth (HeLa cells [1]; 20 nM, 390 nm (150 ms every 30 s)): 0.96 fold
mean fold growth (HeLa cells [1]; 20 nM, Dark): 1.02 fold
mean fold growth (HeLa cells [1]; 50 nM, 390 nm (150 ms every 30 s)): 0.96 fold
mean fold growth (HeLa cells [1]; 50 nM, Dark): 1.01 fold
mean fold growth (HeLa cells [1]; 100 nM, 390 nm (150 ms every 30 s)): 0.93 fold
mean fold growth (HeLa cells [1]; 100 nM, dark): 1.01 fold
mean fold growth (HeLa cells [1]; 400 nM, 390 nm (150 ms every 30 s)): 0.28 fold
mean fold growth (HeLa cells [1]; 400 nM, dark): 1.00 fold
mean fold growth (HeLa cells [1]; 400 nM, rescue: 390 nm (150 ms) then 505 nm (500 ms) every 30 s): 0.46 fold
mean fold growth (HeLa cells [1]; 600 nM, 390 nm (150 ms every 30 s)): 0.21 fold
mean fold growth (HeLa cells [1]; 600 nM, dark): 1.05 fold
mean fold growth (HeLa cells [1]; 800 nM, 390 nm (150 ms every 30 s)): 0.17 fold
mean fold growth (HeLa cells [1]; 800 nM, Dark): 0.98 fold
mean fold growth (HeLa cells [1]; 1 μM, 390 nm (150 ms every 30 s)): 0.18 fold
mean fold growth (HeLa cells [1]; 1 μM, dark): 0.93 fold
mean fold growth (HeLa cells [1]; 2 μM, 390 nm (150 ms every 30 s)): 0.21 fold
mean fold growth (HeLa cells [1]; 2 μM, Dark): 0.98 fold
toxicity (HeLa cells [1]; in the dark, 10 nM-2 μM): no toxicity
concentration inducing severe cytotoxicity (HeLa cells [1]; upon exposure to the light (390 nm)): ≥ 400 nM
mean fold growth (HeLa cells [2]; 100 nM, 390 nm (75 ms every 15 s)): 0.95 fold
mean fold growth (HeLa cells [2]; 100 nM, Dark): 0.95 fold
mean fold growth (HeLa cells [2]; 500 nM, 390 nm (75 ms every 15 s)): 0.85 fold
mean fold growth (HeLa cells [2]; 500 nM, Dark): 0.89 fold
mean fold growth (HeLa cells [2]; 1 μM, 390 nm (75 ms every 15 s)): 0.43 fold
mean fold growth (HeLa cells [2]; 1 μM, Dark): 0.87 fold
mean fold growth (HeLa cells [2]; 2 μM, 390 nm (75 ms every 15 s)): 0.35 fold
mean fold growth (HeLa cells [2]; 2 μM, Dark): 0.89 fold
mean fold growth (HeLa cells [2]; 5 μM, 390 nm (75 ms every 15 s)): 0.27 fold
mean fold growth (HeLa cells [2]; 5 μM, Dark): 0.84 fold
mean fold growth (HeLa cells [2]; 10 μM, 390 nm (75 ms every 15 s)): 0.35 fold
mean fold growth (HeLa cells [2]; 10 μM, Dark): 0.75 fold
mean % G2/M phase (HEK-293; [3]): 19.0%
mean % G2/M phase (HEK-293; 200 nM, dark): 20.2%
mean % G2/M phase (HEK-293; [4]): 19.4%
mean % G2/M phase (HEK-293; 600 nM, dark): 21.2%
mean % G2/M phase (HEK-293; [5]): 65.3%
mean % G2/M phase (HEK-293; 1.5 μM, dark): 21.1%
mean % G2/M phase (HEK-293; [6]): 71.5%
mean % G2/M phase (HEK-293; 5 μM, dark): 24.6%
mean % G2/M phase (HepG2 cells; 100 nM, 390 nm (250 ms every 15 s)): 7.8%
mean % G2/M phase (HepG2 cells; 100 nM, dark): 10.0%
mean % G2/M phase (HepG2 cells; 600 nM, 390 nm (250 ms every 15 s)): 9.4%
mean % G2/M phase (HepG2 cells; 600 nM, dark): 8.6%
mean % G2/M phase (HepG2 cells; 1 μM, 390 nm (250 ms every 15 s)): 10.7%
mean % G2/M phase (HepG2 cells; 1 μM, dark): 10.1%
mean % G2/M phase (HepG2 cells; 3 μM, 390 nm (250 ms every 15 s)): 9.3%
mean % G2/M phase (HepG2 cells; 3 μM, dark): 11.2%
mean % G2/M phase (HepG2 cells; 10 μM, 390 nm (250 ms every 15 s)): 42.3%
mean % G2/M phase (HepG2 cells; 10 μM, dark): 11.7%
mean % G2/M phase (HeLa; [3]): 26.2%
mean % G2/M phase (HeLa; 200 nM, dark): 23.5%
mean % G2/M phase (HeLa; [4]): 33.7%
mean % G2/M phase (HeLa; 600 nM, dark): 24.8%
mean % G2/M phase (HeLa; [5]): 59.9%
mean % G2/M phase (HeLa; 1.5 μM, dark): 27.1%
mean % G2/M phase (HeLa; [6]): 68.7%
mean % G2/M phase (HeLa; 5 μM, dark): 28.4%
